“And” between values parts separate entries of the source, which are not always exact repeats. Identical values can stand only once. Like-named read-outs stand apart in the source and are kept apart here.
Tests used:
BTK^FL = target: T1, BTK^FL (Homo sapiens, UniProt Q06187+Q13490); assay: Expi293 dose-dependent BTK degradation (western blot), BTK^FL co-transfected with cIAP1^FL; type: cell-based; conditions: for DC50: Expi293, cIAP1^FL co-transfected, ~18 h, 3 experiments, read-out: DC50 for degradation of BTK^FL (WT)
T1 construct: we used a full-length BTK (aa1-659) with a C terminal Tobacco Etch Virus protease (TEV) site; expressed in transfected cells; host or cells: Expi293 (HEK293)
Protocol: (§1) Gibco Expi293 cell line Transfection Kit (Cat.# A14524) was cultured according to the manufacturers conditions. Cells were grown at 37 °C with 5% CO2 to 4 × 10^6 cells/mL using an orbital shaker set to 95 RPM. Next cells were split to 2 × 10^6 cells/mL and transfected with plasmid DNA at a 1 µg/mL final concentration in Optimem (Gibco 31985070) using the Expifectamine 293 transfection reagent according to manufacturer’s conditions. After approximately 18 h, enhancers 1 and 2 (provided with kit). Viability was typically about 85%. When cIAP1^FL was transfected, it was detected via α-cIAP1 antibody there was typically some autoubiquitination detected, and thus often appeared as a laddered or smeared band via western blotting. When BTK^FL variants were transfected, they were detected using anti-BTK antibody (D3H5).
(§2) For dose-dependent degradation assays, cells were plated in a 24-well format and placed on a separate orbital shaker set to 115 RPM. Each well was treated with prescribed compound concentrations in the same manner as with THP-1 cells, with the exception of using Expifectamine 293 growth medium in place of RPMI 1640 complete media. After approximately 18 h post-treatment cells were harvested, centrifuged at 100 x g at 4 °C, washed twice with ice-cold PBS, and resuspended in RIPA buffer supplemented with a Roche protease inhibitor cocktail (Cat. #11873580001), and benzonase nuclease (Millipore-Sigma Cat# 70664). Each sample was incubated on ice for 30 min with periodic vortexing and centrifuged at 15 Kxg for 20 min. Clarified lysate was harvested and quantified using a Pierce BCA Assay Kit (Cat. #23225), and 20 µg of the sample was loaded into a 4–15% Criterion TGX gel (Bio-Rad, 5678085) and transferred to a nitrocellulose membrane (Life Technologies Cat. #IB23001) using an iBlot 2 (Life Technologies Cat. #IB21001). Proteins were detected using an iBind system (Life Technologies SLF2020). For BTK^T474I and BTK^T474I/C481S we inferred ligand entry into cells via the autoubiquitination and dose-dependent degradation of cIAP1^FL,[58].
(§3) Dose-dependent Degradation was analyzed using ImageJ (NIH, version 1.50i). Densiometric analysis was performed, normalized to DMSO signal, and analyzed using GraphPad Prism (Version 9.0.0 (121)). Non-linear fit one-phase decay analysis was used to obtain DC50 values. When we observed a hook effect, some points were excluded as part of the fit. In Supplementary Fig. 7B the complete curve was fit using GraphPad Prism non-linear regression bell-shaped curve where X is the concentration. However, using this method we were unable to obtain stable values for our DC50. SEM error was plotted for each point. When determining statistically significant differences, we used a two-sided student’s unpaired T-Test.

BTK^FL-C481S = target: T2, BTK^FL-C481S (Homo sapiens, UniProt Q06187+Q13490, C481S); assay: Expi293 dose-dependent BTK degradation (western blot), BTK^FL-C481S co-transfected with cIAP1^FL; type: cell-based; conditions: for C481S BTK blot signal normalized to DMSO: replicates; for DC50: Expi293, cIAP1^FL co-transfected, ~18 h, 3 experiments
T2 construct: we used a full-length BTK (aa1-659) with a C terminal Tobacco Etch Virus protease (TEV) site; expressed in transfected cells; host or cells: Expi293 (HEK293)
Protocol: as §1, §2, §3

BTK = target: T3, BTK (Homo sapiens, UniProt Q06187+Q13490); assay: THP-1 dose-dependent degradation of endogenous BTK; type: cell-based; conditions: replicates
T3 construct: a THP-1 cell line which natively expresses both BTK and cIAP1; host or cells: THP-1
Protocol: Human monocytic leukemia THP-1 Cells (ATCC TIB202) were grown in RPMI 1640 complete media (Gibco Cat# 11875-093), 10% Heat Inactivated FBS (Gibco Cat# 10438026), 2 mM L-Glutamine (Gibco Cat# 25030-081), 10 mM HEPES (Lonza Cat# 17-737E). Cells were cultured to approximately 0.8 × 10^6 cells/mL, centrifuged at 100 x g at 4 °C for 5 min, and resuspended in growth medium at 1.25 × 10^6 cells/mL, and 750 µL were plated in a 24-well format. Compounds were serially diluted in DMSO and individually added to pre-warmed complete media at a 4x concentration. Subsequently, 250 µL was added to their respective well, making it a 1x concentration. Endpoint viability was ≥95%. Each experiment was performed with n = 3 independent experiments. Three datapoints are missing due to blot.
as §3

[1] = target: T4, BTK^KD and cIAP1^BUCR1 ternary complex (Homo sapiens, UniProt Q06187+Q13490); assay: Biolayer interferometry (BLI) ternary complex formation; type: binding
T4 construct: BTK^KD (aa384-659) were expressed and purified as previously described; cIAP1^BUCR1 (aa260-618), and BTK^KD (aa384-659) were expressed and purified as previously described; biotin / BAP (only when BTK^KD~BCCov was the sensor ligand); made in house; host or cells: BTK^KD: SF9 insect cells; cIAP1^BUCR1: E. coli BL21-DE3
Protocol: We performed biolayer interferometry (BLI) with an OctetRED384 system (Data Acquisition Version 9.0.0.49) as described previously. […] Ligands were loaded onto streptavidin biosensors (ForteBio, 18-5019) for 120 s, washed in Octet buffer for 200 s, quenched with 50 μM d-biotin (Invitrogen) for 120 s, and washed in Octet buffer for 500 s. […] Excess compound was desalted using a Zeba Spin Desalting Column (Cat. #89882). The preformed binary complex was then dipped into varying concentrations of analyte diluted in Octet buffer for 300 s to determine kon, followed by a wash for 500 s to determine koff. Binding kinetics were calculated and plotted using BiaEvaluation Software (version 4.1.1). Cooperativity (α) was determined by calculating the ratio of binary Kd to ternary complex Kd.

T4 sequence (Q06187 384-659): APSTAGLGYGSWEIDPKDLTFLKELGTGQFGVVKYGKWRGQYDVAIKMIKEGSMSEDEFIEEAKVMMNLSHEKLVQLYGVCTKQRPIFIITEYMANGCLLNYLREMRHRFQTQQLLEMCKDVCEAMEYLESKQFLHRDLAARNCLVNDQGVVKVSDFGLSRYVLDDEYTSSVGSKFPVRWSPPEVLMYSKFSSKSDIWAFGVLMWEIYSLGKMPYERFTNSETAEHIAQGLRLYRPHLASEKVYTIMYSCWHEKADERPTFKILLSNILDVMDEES
T4 sequence (Q13490 260-618): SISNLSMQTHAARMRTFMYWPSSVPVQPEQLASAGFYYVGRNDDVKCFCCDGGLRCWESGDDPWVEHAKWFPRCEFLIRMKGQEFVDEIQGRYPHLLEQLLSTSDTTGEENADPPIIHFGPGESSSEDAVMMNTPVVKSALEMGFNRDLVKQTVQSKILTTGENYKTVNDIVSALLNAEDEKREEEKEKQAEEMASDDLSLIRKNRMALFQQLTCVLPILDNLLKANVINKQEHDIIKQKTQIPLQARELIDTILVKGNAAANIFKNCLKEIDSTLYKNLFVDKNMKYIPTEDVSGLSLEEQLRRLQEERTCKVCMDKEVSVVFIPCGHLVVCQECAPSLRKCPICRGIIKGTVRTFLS
T2 sequence (Q06187 whole entry C481S, the tested form may be a part): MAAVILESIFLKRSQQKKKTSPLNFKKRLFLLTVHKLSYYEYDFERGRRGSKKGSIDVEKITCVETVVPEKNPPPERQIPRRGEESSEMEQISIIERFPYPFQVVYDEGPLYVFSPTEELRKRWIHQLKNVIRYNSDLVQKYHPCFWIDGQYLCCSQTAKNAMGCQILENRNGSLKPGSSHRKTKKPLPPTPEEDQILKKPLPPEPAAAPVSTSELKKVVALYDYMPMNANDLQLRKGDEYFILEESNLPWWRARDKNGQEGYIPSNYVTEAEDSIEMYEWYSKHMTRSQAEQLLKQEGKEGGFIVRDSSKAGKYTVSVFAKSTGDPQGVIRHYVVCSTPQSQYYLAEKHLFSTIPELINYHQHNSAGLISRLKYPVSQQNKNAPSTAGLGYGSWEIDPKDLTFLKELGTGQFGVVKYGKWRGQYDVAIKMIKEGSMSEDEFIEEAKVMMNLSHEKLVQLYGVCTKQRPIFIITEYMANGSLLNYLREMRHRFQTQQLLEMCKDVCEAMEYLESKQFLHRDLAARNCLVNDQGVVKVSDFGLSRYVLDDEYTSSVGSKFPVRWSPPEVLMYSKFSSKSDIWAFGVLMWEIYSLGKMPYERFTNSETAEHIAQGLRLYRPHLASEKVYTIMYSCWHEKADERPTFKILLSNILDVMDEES
T2 sequence (Q13490 whole entry, the tested form may be a part): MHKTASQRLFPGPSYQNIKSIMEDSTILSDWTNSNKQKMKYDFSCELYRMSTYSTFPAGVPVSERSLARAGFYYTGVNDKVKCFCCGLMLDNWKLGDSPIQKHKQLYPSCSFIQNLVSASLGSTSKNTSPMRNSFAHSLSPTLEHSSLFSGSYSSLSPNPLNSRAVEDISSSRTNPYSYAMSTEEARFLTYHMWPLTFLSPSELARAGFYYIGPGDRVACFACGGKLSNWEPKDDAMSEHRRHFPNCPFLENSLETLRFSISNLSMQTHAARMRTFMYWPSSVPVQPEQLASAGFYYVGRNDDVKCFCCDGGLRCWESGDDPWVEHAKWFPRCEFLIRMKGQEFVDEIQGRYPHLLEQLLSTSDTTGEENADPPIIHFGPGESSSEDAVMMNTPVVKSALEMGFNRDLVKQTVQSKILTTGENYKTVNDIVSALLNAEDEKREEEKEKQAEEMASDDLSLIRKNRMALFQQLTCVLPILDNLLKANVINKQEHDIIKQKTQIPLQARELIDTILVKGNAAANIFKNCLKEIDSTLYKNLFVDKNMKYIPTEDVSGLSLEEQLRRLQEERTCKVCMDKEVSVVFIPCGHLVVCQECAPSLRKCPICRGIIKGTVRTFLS
T3 sequence (Q06187 whole entry): as the sequence (Q06187 whole entry C481S, the tested form may be a part) above, with S481C counted along it
T3 sequence (Q13490 whole entry): as the sequence (Q13490 whole entry, the tested form may be a part) above
T1 sequence (Q06187 whole entry, the tested form may be a part): as the sequence (Q06187 whole entry C481S, the tested form may be a part) above, with S481C counted along it
T1 sequence (Q13490 whole entry, the tested form may be a part): as the sequence (Q13490 whole entry, the tested form may be a part) above

SMILES | WT BTK blot signal normalized to DMSO (BTK^FL; 0.004883 uM, replicates) | WT BTK blot signal normalized to DMSO (BTK^FL; 0.009766 uM, replicates) | WT BTK blot signal normalized to DMSO (BTK^FL; 0.019531 uM, replicates) | WT BTK blot signal normalized to DMSO (BTK^FL; 0.039063 uM, replicates) | WT BTK blot signal normalized to DMSO (BTK^FL; 0.078125 uM, replicates) | WT BTK blot signal normalized to DMSO (BTK^FL; 0.15625 uM, replicates) | WT BTK blot signal normalized to DMSO (BTK^FL; 0.3125 uM, replicates) | WT BTK blot signal normalized to DMSO (BTK^FL; 0.625 uM, replicates) | WT BTK blot signal normalized to DMSO (BTK^FL; 1.25 uM, replicates) | WT BTK blot signal normalized to DMSO (BTK^FL; 2.5 uM, replicates) | WT BTK blot signal normalized to DMSO (BTK^FL; 5 uM, replicates) | DC50 (BTK^FL) [µM] | C481S BTK blot signal normalized to DMSO (BTK^FL-C481S; 0.004883 uM) | C481S BTK blot signal normalized to DMSO (BTK^FL-C481S; 0.009766 uM) | C481S BTK blot signal normalized to DMSO (BTK^FL-C481S; 0.019531 uM) | C481S BTK blot signal normalized to DMSO (BTK^FL-C481S; 0.039063 uM) | C481S BTK blot signal normalized to DMSO (BTK^FL-C481S; 0.078125 uM) | C481S BTK blot signal normalized to DMSO (BTK^FL-C481S; 0.15625 uM) | C481S BTK blot signal normalized to DMSO (BTK^FL-C481S; 0.3125 uM) | C481S BTK blot signal normalized to DMSO (BTK^FL-C481S; 0.625 uM) | also measured
CNC(C)C(=O)NC(C(=O)N1CC(NC(=O)COCCN2CCN(CC=CC(=O)N3CCCC(n4nc(-c5ccc(Oc6ccccc6)cc5)c5c(N)ncnc54)C3)CC2)CC1C(=O)NC1CCCc2ccccc21)C1CCCCC1 (stereo not shown) [BCCov] | 0.92 and 0.99 and 1.00 | 0.74 and 1.02 and 0.84 | 0.72 and 0.83 and 0.75 | 0.52 and 0.87 and 0.78 | 0.38 and 0.65 and 0.51 | 0.29 and 0.54 and 0.30 | 0.25 and 0.36 and 0.30 | 0.21 and 0.32 and 0.16 | 0.20 and 0.35 and 0.15 | 0.24 and 0.40 and 0.29 | 0.68 and 0.77 and 0.51 | 0.0572 ± 0.028 | 0.87 and 0.90 and 0.91 | 0.89 and 0.76 and 0.79 | 0.87 and 0.66 and 0.82 | 0.76 and 0.72 and 0.87 | 0.63 and 0.53 and 0.56 | 0.51 and 0.41 and 0.42 | 0.35 and 0.41 and 0.28 | 0.26 and 0.34 and 0.16 | BTK level normalized to untreated BTK^FL, Figure 1B Lane 2 (BTK^FL; 5 µM, BTK^FL without cIAP1^FL, replicates): 1.30 and 0.97 and 0.91; BTK degradation without cIAP1^FL (BTK^FL; BTK^FL transfected without cIAP1^FL (Fig. 1B, lane 2)): no observable ligand-induced BTK degradation; hook effect in degradation profile (BTK^FL; wt BTK^FL, Expi293): partial hook effect; C481S BTK blot signal normalized to DMSO (BTK^FL-C481S; 1.25 uM): 0.27 and 0.20 and 0.13; C481S BTK blot signal normalized to DMSO (BTK^FL-C481S; 2.5 uM): 0.21 and 0.11 and 0.057; C481S BTK blot signal normalized to DMSO (BTK^FL-C481S; 5 uM): 0.21 and 0.09 and 0.0641; DC50 (BTK^FL-C481S): 0.122 ± 0.044 µM; endogenous BTK blot signal normalized to DMSO (BTK; THP-1, 0.00488 uM): 1.05 and 0.90 and 1.04; endogenous BTK blot signal normalized to DMSO (BTK; THP-1, 0.01 uM): 1.07 and 1.23 and 0.79; endogenous BTK blot signal normalized to DMSO (BTK; THP-1, 0.02 uM): 0.87 and 1.16 and 0.59; endogenous BTK blot signal normalized to DMSO (BTK; THP-1, 0.04 uM): 0.60 and 1.52 and 0.48; endogenous BTK blot signal normalized to DMSO (BTK; THP-1, 0.08 uM): 0.50 and 0.87 and 0.33; endogenous BTK blot signal normalized to DMSO (BTK; THP-1, 0.16 uM): 0.45 and 0.72 and 0.21; endogenous BTK blot signal normalized to DMSO (BTK; THP-1, 0.31 uM): 0.22 and 0.32 and 0.13; endogenous BTK blot signal normalized to DMSO (BTK; THP-1, 0.63 uM): 0.18 and 0.24 and 0.08; endogenous BTK blot signal normalized to DMSO (BTK; THP-1, 1.25 uM): 0.13 and 0.23 and 0.0336; endogenous BTK blot signal normalized to DMSO (BTK; THP-1, 2.50 uM): 0.11 and 0.00 and 0.00241; endogenous BTK blot signal normalized to DMSO (BTK; THP-1, 5.00 uM): 0.056 and 0.00 (2×); Kd [1]: 0.0725 µM; cooperativity factor α = Kd binary/Kd ternary ([1]; upper limit): ≤ 0.2
CNC(C)C(=O)NC(C(=O)N1CC(NC(=O)COCCN2CCN(CCCC(=O)N3CCCC(n4nc(-c5ccc(Oc6ccccc6)cc5)c5c(N)ncnc54)C3)CC2)CC1C(=O)NC1CCCc2ccccc21)C1CCCCC1 (stereo not shown) [BCNC] | 0.92 and 1.00 (2×) | 0.74 and 1.02 and 0.84 | 0.72 and 0.83 and 0.75 | 0.52 and 0.87 and 0.78 | 0.38 and 0.65 and 0.51 | 0.29 and 0.54 and 0.30 | 0.25 and 0.36 and 0.30 | 0.21 and 0.32 and 0.16 | 0.2 and 0.35 and 0.15 | 0.24 and 0.40 and 0.29 | 0.68 and 0.77 and 0.51 | 0.149 ± 0.07 | 0.87 and 1.00 (2×) | 0.89 and 0.76 and 0.79 | 0.87 and 0.66 and 0.82 | 0.76 and 0.72 and 0.87 | 0.63 and 0.53 and 0.56 | 0.51 and 0.41 and 0.42 | 0.35 and 0.41 and 0.28 | 0.26 and 0.34 and 0.16 | C481S BTK blot signal normalized to DMSO (BTK^FL-C481S; 1.25 uM): 0.27 and 0.20 and 0.13; C481S BTK blot signal normalized to DMSO (BTK^FL-C481S; 2.5 uM): 0.21 and 0.11 and 0.057; C481S BTK blot signal normalized to DMSO (BTK^FL-C481S; 5 uM): 0.21 and 0.09 and 0.0641; DC50 (BTK^FL-C481S): 0.145 ± 0.058 µM; endogenous BTK blot signal normalized to DMSO (BTK; THP-1, 0.00488 uM, listed as noncov): 0.97 and 1.25 and 1.03; endogenous BTK blot signal normalized to DMSO (BTK; THP-1, 0.01 uM, listed as noncov): 1.01 and 1.22 and 0.91; endogenous BTK blot signal normalized to DMSO (BTK; THP-1, 0.02 uM, listed as noncov): 1.09 and 1.18 and 0.86; endogenous BTK blot signal normalized to DMSO (BTK; THP-1, 0.04 uM, listed as noncov): 1.06 and 1.18 and 0.70; endogenous BTK blot signal normalized to DMSO (BTK; THP-1, 0.08 uM, listed as noncov): 0.36 and 0.68 and 0.42; endogenous BTK blot signal normalized to DMSO (BTK; THP-1, 0.16 uM, listed as noncov): 0.23 and 0.28 (2×); endogenous BTK blot signal normalized to DMSO (BTK; THP-1, 0.31 uM, listed as noncov): 0.17 and 0.09 and 0.13; endogenous BTK blot signal normalized to DMSO (BTK; THP-1, 0.63 uM): 0.00; endogenous BTK blot signal normalized to DMSO (BTK; THP-1, 1.25 uM): 0.00; endogenous BTK blot signal normalized to DMSO (BTK; THP-1, 2.50 uM): 0.00; endogenous BTK blot signal normalized to DMSO (BTK; THP-1, 5.00 uM): 0.00; Kd ([1]; [cIAP1^BUCR1-BCNC] binary complex binding BTK^KD, read-out: Kd, ternary complex): 0.0498 µM

— article PMC9981747, “A covalent BTK ternary complex compatible with targeted protein degradation” (Nature Communications, 2023)
